What was measured:
[1] = Peroxide number (PON) of raw materials; type: physicochemical; conditions: raw material following approximately 6 months' storage at room temperature
Source text: The peroxide content is commonly expressed by means of the so-called peroxide number PON, which indicates the amount of milliequivalents of active oxygen per kg of substance. There are various methods of determining the peroxide number. The most customary is to react a defined amount of substance in a chloroform/glacial acetic acid solution with an excess of iodide ions and then to back-titrate the resultant iodine using sodium thiosulfate. A less common method, which is restricted to aqueous solutions, is to react the substance with titanium(IV) ions and to measure the resultant peroxo complex by photometry. A semiquantitative test for peroxides which is particularly easy to implement is carried out using commercial […].
The table below lists the measured peroxide numbers of some exemplary substances used to produce reservoir and matrix systems, following approximately 6 months' storage at room temperature. The peroxide numbers were measured by the two first-mentioned methods.

[2] = Test reaction of active substance with t-butyl hydroperoxide under reflux; type: physicochemical; conditions: chloroform; for Identified degradation product in reaction with t-butyl hydroperoxide: reflux 6 hours
Source text: To determine the sensitivity of the active substance to oxidation reactions with hydroperoxides, an easily implemented test reaction has been developed. For this purpose, the active substance in chloroform or another appropriate solvent is reacted with t-butyl hydroperoxide under reflux. If oxidative degradation products of the active substance are found in this reaction mixture, they can be attributed to the reaction with hydroperoxide. Often, degradation of the active substance is also evident very simply from a discoloration of the test solution. The practical conclusion to be drawn from a positive outcome of the test reaction is that when formulating a transdermal system using this active substance the auxiliaries used should include only those which are substantially free from hydroperoxides.
80 ml of chloroform and 1 g of t-butyl hydroperoxide are added to 0.5 g of the active substance and this system is heated under reflux with stirring for 6 hours. The reaction mixture is subsequently assessed for its color and analyzed using an appropriate chromatographic method for degradation products formed.

SMILES | PON (peroxide number) [1] | Identified degradation product in reaction with t-butyl hydroperoxide [2] | also measured
C=C(C)[C@H]1CC=C(C)CC1 [Limonene] | 15 milliequivalents of active oxygen per kg of substance | – | –
CCCCCCCC/C=C\CCCCCCCCO [Oleyl alcohol] | 50 milliequivalents of active oxygen per kg of substance | – | –
Cc1cc2c(OCC(CNC(C)(C)C)OC(=O)c3ccccc3)cccc2[nH]1 (stereo not drawn) [bopindolol] | – | – | Color of reaction mixture with t-butyl hydroperoxide ([2]; reflux): yellowish discoloration which then becomes strongly brown
CCOCCOCCO [Diethylene glycol monoethyl ether] | 120 milliequivalents of active oxygen per kg of substance | – | –
CCCN(CCc1cccs1)[C@H]1CCc2c(O)cccc2C1 [N-0923 base] | – | 1,2-dihydronaphth-8-ol | –
CCCN1C[C@H](CSC)C[C@@H]2c3cccc4[nH]cc(c34)C[C@H]21 [pergolide] | – | Oxidation of the sulfide sulfur to the sulfoxide | –

Reference: patent US6699498B1, “Transdermal therapeutic systems having improved stability and their production” (LTS Lohmann Therapie-Systeme AG, priority 1999, dated 2004)
